In ChEMBL document CHEMBL3763010, “Inhibition of monoamine oxidase by benzoxathiolone analogues” (Bioorg Med Chem Lett, 2016):

How the values were obtained:
Homo sapiens = species on record: Homo sapiens; test: Selectivity index, ratio of IC50 for recombinant human MAO-A to recombinant human MAO-B
[1] = target: T1, Amine oxidase [flavin-containing] B (Homo sapiens, UniProt P27338)
T1 sequence (P27338 whole entry): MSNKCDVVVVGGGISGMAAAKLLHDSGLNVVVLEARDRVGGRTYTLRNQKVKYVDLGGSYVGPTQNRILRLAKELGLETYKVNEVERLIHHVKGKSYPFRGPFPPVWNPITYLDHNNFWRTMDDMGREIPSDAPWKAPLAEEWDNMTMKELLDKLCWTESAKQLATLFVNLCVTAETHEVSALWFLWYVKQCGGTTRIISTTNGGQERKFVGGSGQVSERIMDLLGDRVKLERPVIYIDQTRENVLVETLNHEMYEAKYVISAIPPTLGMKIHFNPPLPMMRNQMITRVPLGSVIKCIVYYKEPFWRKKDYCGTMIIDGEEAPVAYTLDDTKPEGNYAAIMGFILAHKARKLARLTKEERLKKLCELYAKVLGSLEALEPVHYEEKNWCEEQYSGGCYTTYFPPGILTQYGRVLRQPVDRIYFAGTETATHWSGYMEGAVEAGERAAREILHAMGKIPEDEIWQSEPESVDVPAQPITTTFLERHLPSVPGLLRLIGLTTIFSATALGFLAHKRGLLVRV
Description: Inhibition of recombinant human MAO-B after 20 mins using 50 uM kynuramine as substrate by fluorescence spectrophotometry

[2] = target: T2, Amine oxidase [flavin-containing] A (Homo sapiens, UniProt P21397)
T2 sequence (P21397 whole entry): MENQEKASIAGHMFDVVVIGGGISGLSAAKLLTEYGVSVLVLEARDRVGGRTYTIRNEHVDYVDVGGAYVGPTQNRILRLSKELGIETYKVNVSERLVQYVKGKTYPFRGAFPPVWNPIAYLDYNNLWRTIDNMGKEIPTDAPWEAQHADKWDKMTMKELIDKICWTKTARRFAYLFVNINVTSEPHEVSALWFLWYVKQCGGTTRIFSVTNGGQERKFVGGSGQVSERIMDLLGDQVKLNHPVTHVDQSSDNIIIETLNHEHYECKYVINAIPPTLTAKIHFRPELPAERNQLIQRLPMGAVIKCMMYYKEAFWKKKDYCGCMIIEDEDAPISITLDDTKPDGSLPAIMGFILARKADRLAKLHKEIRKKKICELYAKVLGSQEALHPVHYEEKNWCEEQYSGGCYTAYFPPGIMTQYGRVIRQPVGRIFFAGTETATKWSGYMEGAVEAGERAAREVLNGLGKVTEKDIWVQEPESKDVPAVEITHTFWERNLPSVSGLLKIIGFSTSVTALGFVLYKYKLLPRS
Description: Inhibition of recombinant human MAO-A after 20 mins using 50 uM kynuramine as substrate by fluorescence spectrophotometry

[3] = Lipophilicity, logP of the compound by shake-flask method; format: physicochemical; details: octanol/water
[4] = target: T2, Amine oxidase [flavin-containing] A; test: Reversible inhibition of recombinant human MAO-A assessed as enzyme activity recovered pretreated with compound for 15 mins followed by addition of 50 uM kynuramine as substrate measured after 24 hrs by dialysis; design: scale not given: the % may be the effect or the level left
[5] = target: T1, Amine oxidase [flavin-containing] B; test: Inhibition of recombinant human MAO-B assessed as enzyme activity pretreated with compound for 15 mins followed by addition of 50 uM kynuramine as substrate measured after 24 hrs; design: scale not given: the % may be the effect or the level left
[6] = target: T1, Amine oxidase [flavin-containing] B; test: Inhibition of recombinant human MAO-B pretreated with compound for 15 mins followed by addition of 50 uM kynuramine as substrate by Michaelis-Menten method
[7] = target: T2, Amine oxidase [flavin-containing] A; test: Competition inhibition of recombinant human MAO-A pretreated with compound for 15 mins followed by addition of 50 uM kynuramine as substrate by Lineweaver-Burk plot method
[8] = target: T2, Amine oxidase [flavin-containing] A; test: Inhibition of recombinant human MAO-A assessed as enzyme activity pretreated with compound for 15 mins followed by addition of 50 uM kynuramine as substrate measured after 24 hrs; design: scale not given: the % may be the effect or the level left
[9] = target: T1, Amine oxidase [flavin-containing] B; test: Competition inhibition of recombinant human MAO-B pretreated with compound for 15 mins followed by addition of 50 uM kynuramine as substrate by Lineweaver-Burk plot method
[10] = target: T2, Amine oxidase [flavin-containing] A; test: Inhibition of recombinant human MAO-A activity pretreated with compound for 15 mins followed by addition of 50 uM kynuramine as substrate by Michaelis-Menten method

Compound | Ratio IC50 (Homo sapiens) | IC50 [1] [nM] | IC50 [2] [nM] | logP [3] | Activity [4] [%] | Activity [5] [%] | Ki [6] [nM] | Ki [7] [nM] | Activity [8] [%] | Ki [9] [nM] | Ki [10] [nM]
O=c1oc2cc(O)ccc2s1 [TIOXOLONE] | 1 | 9570 | 9770 |  |  |  |  |  |  |  | 
O=c1oc2cc(OCc3ccccc3)ccc2s1 | 101 | 51 | 5140 | 3.8 |  |  |  |  |  |  | 
C#CCN(C)Cc1ccccc1 [PARGYLINE] |  |  |  |  | 0.9 |  |  |  |  |  | 
O=C1OCc2cc(OCc3ccccc3)ccc21 |  | 62 | 26700 |  |  |  |  |  |  |  | 
O=c1oc2cc(OCc3ccc(Cl)cc3)ccc2s1 | 63 | 3 | 189 | 5.61 | 93 | 39 | 3.9 | 360 | 73 | 3.5 | 560
